In ChEMBL document CHEMBL1142492 (J Med Chem, 2008):

Columns and labels:
[1] = target: CYP2D6 (Homo sapiens, UniProt P10635); test: Inhibition of human CYP2D6 at 10 uM; type: ADME
[2] = Half life in Sprague-Dawley rat at 1 mg/kg, iv; conditions: in vivo
[3] = target: CYP3A4 (Homo sapiens, UniProt P08684); test: Inhibition of human CYP3A4 at 10 uM; type: ADME
[4] = in vivo; conditions: Sprague-Dawley, rat, plasma, iv, 1 mg/kg
[5] = Clearance in Sprague-Dawley rat at 1 mg/kg, iv; conditions: in vivo
[6] = target: T1, CYP1A2 (Homo sapiens, UniProt P05177); test: Inhibition of human CYP1A2 at 10 uM; type: ADME
T1 sequence (P05177 whole entry): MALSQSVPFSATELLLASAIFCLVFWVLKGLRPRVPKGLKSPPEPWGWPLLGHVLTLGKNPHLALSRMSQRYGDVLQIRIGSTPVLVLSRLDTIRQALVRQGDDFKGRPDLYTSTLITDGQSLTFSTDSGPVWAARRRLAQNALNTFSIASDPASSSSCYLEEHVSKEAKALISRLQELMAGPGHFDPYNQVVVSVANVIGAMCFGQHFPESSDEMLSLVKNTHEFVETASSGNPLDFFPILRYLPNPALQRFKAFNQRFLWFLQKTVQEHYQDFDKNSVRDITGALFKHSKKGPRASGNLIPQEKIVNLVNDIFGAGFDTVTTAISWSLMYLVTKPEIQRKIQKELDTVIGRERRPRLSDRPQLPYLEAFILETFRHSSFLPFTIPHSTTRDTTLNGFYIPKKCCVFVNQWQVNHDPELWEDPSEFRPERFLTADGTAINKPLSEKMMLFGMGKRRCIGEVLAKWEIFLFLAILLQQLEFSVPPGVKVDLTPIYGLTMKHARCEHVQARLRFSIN

[7] = Volume of distribution in Sprague-Dawley rat at 1 mg/kg, iv; conditions: in vivo
[8] = target: CYP2C9 (Homo sapiens, UniProt P11712); test: Inhibition of human CYP2C9 at 10 uM; type: ADME
Sequence of CYP2C9 (P11712 whole entry): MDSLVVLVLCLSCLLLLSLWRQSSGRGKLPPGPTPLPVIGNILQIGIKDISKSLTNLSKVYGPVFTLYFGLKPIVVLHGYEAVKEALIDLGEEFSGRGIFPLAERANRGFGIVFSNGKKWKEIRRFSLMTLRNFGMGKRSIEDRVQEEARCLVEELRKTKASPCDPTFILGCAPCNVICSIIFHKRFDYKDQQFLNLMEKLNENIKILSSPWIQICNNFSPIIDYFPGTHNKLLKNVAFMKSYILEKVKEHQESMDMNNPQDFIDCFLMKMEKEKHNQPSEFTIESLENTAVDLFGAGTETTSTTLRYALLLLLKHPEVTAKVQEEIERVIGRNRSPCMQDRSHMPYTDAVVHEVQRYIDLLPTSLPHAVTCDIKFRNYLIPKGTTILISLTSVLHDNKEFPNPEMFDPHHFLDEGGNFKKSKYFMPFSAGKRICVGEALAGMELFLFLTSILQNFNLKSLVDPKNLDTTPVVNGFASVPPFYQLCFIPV

[9] = in vivo; conditions: Sprague-Dawley, rat, po, 2 mg/kg
[10] = target: Rho-associated protein kinase 2 (Homo sapiens, UniProt O75116); test: Inhibition of ROCK2
Sequence of Rho-associated protein kinase 2 (O75116 whole entry): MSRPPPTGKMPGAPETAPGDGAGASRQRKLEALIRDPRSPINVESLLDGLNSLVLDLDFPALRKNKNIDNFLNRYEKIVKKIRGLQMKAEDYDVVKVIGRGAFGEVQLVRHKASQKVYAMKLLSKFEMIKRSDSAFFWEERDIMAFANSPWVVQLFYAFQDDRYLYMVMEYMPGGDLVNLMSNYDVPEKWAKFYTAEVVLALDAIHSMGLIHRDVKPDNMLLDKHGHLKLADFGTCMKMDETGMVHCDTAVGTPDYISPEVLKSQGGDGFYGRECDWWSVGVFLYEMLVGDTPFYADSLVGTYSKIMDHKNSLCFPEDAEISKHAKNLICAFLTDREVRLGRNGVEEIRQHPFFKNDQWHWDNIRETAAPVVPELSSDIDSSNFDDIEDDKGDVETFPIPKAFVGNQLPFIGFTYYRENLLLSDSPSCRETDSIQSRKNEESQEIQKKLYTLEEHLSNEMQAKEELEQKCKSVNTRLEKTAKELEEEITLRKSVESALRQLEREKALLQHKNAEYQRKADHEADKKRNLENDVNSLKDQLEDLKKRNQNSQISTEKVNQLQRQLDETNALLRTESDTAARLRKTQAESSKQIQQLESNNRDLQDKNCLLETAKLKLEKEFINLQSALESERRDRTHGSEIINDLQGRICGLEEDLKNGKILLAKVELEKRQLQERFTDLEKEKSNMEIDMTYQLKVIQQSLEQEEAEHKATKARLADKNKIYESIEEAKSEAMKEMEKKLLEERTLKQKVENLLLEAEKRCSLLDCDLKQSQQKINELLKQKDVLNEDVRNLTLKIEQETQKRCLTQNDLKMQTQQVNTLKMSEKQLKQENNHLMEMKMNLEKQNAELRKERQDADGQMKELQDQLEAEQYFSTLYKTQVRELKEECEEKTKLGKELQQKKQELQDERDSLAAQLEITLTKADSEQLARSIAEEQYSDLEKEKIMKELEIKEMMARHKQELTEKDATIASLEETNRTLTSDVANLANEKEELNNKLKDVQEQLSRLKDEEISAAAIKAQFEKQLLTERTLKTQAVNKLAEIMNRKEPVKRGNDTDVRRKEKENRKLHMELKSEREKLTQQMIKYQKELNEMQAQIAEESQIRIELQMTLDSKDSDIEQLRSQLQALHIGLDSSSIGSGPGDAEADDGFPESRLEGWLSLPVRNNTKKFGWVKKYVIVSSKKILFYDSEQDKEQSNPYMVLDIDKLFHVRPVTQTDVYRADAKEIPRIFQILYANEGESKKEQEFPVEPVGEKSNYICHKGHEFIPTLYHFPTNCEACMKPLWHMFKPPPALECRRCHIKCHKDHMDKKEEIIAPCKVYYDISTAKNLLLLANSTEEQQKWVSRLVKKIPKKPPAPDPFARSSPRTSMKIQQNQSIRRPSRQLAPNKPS

[11] = target: RAC-alpha serine/threonine-protein kinase (Homo sapiens, UniProt P31749); test: Inhibition of AKT1 after 55 mins
Sequence of RAC-alpha serine/threonine-protein kinase (P31749 whole entry): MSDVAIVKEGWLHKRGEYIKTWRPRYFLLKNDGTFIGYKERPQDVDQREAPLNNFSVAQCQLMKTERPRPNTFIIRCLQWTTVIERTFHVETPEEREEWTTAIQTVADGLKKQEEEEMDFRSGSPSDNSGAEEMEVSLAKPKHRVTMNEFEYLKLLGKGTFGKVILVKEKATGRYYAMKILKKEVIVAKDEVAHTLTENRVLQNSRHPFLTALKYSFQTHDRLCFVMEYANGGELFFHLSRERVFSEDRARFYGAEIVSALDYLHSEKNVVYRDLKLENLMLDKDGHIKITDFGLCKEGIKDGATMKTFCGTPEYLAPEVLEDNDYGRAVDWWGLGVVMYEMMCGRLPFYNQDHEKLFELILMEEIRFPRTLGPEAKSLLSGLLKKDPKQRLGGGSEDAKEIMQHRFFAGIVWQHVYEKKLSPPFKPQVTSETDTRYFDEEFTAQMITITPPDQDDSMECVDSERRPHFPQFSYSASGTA

[12] = Inhibition of myosin light chain bisphosphorylation in rat A7r5 cells after 1 hr

Sequence of CYP2D6 (P10635 whole entry): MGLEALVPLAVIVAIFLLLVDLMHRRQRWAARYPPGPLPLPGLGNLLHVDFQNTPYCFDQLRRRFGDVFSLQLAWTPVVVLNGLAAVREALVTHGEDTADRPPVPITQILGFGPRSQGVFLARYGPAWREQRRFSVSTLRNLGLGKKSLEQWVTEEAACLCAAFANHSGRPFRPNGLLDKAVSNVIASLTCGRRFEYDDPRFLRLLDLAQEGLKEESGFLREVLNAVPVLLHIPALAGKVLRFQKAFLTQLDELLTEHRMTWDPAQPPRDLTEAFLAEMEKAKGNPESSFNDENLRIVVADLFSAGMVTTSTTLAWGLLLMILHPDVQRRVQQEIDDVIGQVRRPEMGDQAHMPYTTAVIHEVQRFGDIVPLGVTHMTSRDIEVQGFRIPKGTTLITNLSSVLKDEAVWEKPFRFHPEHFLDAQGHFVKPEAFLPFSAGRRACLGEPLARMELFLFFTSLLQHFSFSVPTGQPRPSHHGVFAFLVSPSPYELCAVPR
Sequence of CYP3A4 (P08684 whole entry): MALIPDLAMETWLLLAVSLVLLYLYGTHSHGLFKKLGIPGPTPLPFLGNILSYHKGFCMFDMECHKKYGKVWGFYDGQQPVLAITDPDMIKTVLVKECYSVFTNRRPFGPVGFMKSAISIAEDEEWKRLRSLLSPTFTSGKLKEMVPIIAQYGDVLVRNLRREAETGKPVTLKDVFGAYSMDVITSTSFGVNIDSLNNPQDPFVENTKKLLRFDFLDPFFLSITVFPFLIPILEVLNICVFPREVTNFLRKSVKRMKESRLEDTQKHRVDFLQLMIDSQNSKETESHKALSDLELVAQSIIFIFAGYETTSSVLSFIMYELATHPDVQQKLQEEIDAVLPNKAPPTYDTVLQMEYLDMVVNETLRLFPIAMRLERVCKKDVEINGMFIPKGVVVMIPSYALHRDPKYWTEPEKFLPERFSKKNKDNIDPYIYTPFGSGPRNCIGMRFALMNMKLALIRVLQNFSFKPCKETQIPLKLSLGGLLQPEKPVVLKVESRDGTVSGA

Row | SMILES | inhibition at 10 µM [1] | half-life [2] | inhibition at 10 µM [3] | AUC [4] | clearance [5] | inhibition at 10 µM [6] | Vd [7] | inhibition at 10 µM [8] | Cmax [9] | IC50 [10] | IC50 [11] | IC50 [12]
1 | O=C(Nc1ccc(-c2ccncc2)cc1)C1COc2ccccc2O1 (stereo unspecified) | 33% | 0.5 h | 51% | 0.3 µM·h | 161 mL/min/kg | 23% | 5.3 L/kg | 64% |  |  |  | 
2 | O=C(Nc1ccc(-c2c[nH]cn2)cc1)C1COc2ccccc2O1 (stereo unspecified) | 40% | 2.2 h | 1% | 2.8 µM·h | 18 mL/min/kg | 20% | 1.9 L/kg | 87% | 20 nM |  |  | 
3 | COc1cc(-c2cn[nH]c2)ccc1NC(=O)C1COc2ccccc2O1 (stereo unspecified) | 79% | 2.6 h | 36% | 4.3 µM·h | 11 mL/min/kg | 92% | 1 L/kg | 93% | 120 nM | 3.3 nM | 8820 nM | 
4 | O=C(Nc1nc(-c2ccncc2)cs1)C1COc2ccccc2O1 (stereo unspecified) | 94% | 0.4 h | 80% | 0.3 µM·h | 181 mL/min/kg | 90% | 3.7 L/kg | 96% |  | 7.2 nM | > 20000 nM | 137 nM

Other lines, results leading:

Row | inhibition at 10 µM [1] | half-life [2] | inhibition at 10 µM [3] | AUC [4] | clearance [5] | inhibition at 10 µM [6] | Vd [7] | inhibition at 10 µM [8] | Cmax [9] | IC50 [10] | IC50 [11] | IC50 [12] | SMILES
5 |  |  |  |  |  |  |  |  |  | 920 nM |  |  | CN(C)CCOc1cc(-c2cn[nH]c2)ccc1N
6 |  |  |  |  |  |  |  |  |  | 760 nM |  |  | CC(=O)Nc1ccc(-c2cn[nH]c2)cc1OCCN(C)C
